{"source": "patent US7947733B2", "about": "“Phosphorylated pyrone analogs and methods” (Limerick BioPharma, priority 2007, dated 2011)", "key": {"[1]": {"test": "Solubility of quercetin-3′-O-phosphate in water", "format": "physicochemical", "conditions": "about pH 8 (about 4 g in 50 mL)", "protocol": "The resultant solid from concentration of the decantate is added acetonitrile (500 mL) followed by water (50 mL) then 1N hydrochloric acid (approx. 20 mL) until a pH of about 5 is achieved. The solution is concentrated to a volume of about 120 mL. The residue is purified with a 600 g, C-18 reverse phase column with 60 mL injections in a gradient. The gradient is 100% water (1 L), 9:1 water:MeOH (1 L), 8:2 water:MeOH (1 L), 7:3 water:MeOH (1 L), 1:1 water:MeOH. The desired product begins to elute after about 500 mL of 1:1 water:MeOH. The fractions are combined and concentrated. The residue is dissolved in water (40 mL) and solid potassium carbonate (approx. 3 g) is added until pH=8. The pH is adjusted to about 2 with 50% sulfuric acid resulting in the formation of a precipitate. The solid is collected, which contained approximately 10% TEA. The solid is suspended in water (50 mL), and the pH is adjusted to about 8 with solid potassium carbonate to produce a yellow solution. The resultant yellow solution is treated dropwise with 50% sulfuric acid until a pH of about 2 is reached, resulting in the precipitation of a solid. The solid is collected and slurried in water (75 mL). The solid is collected and dried giving 4 g, representing 12% of quercetin-3′-O-phosphate. […]"}, "[2]": {"tested_on": "kidney of rats", "test": "Renal pathology in rats co-administered with quercetin-3′-O-phosphate and tacrolimus", "format": "in vivo, rat", "protocol": "Tissue is removed from the kidney of rats treated with tacrolimus (Prograf®) at 0.5 mg/kg and inert vehicle, and from rats treated with tacrolimus (Prograf®) at 0.5 mg/kg and quercetin-3′-O-phosphate (Q-Phosphate) at 11 mg/kg, 28 mg/kg, and at 114 mg/kg for 25 days. […] The tissue from rats treated with Q-Phosphate and tacrolimus show no vacuoles."}, "[3]": {"tested_on": "ATPase, Na+/K+, Heart, Pig", "test": "Secondary toxicity screen (MDS Pharma Services), enzyme assay", "format": "biochemical", "conditions": "10 μM", "protocol": "(§1) A secondary pharmacological screening of molecules of interest at a fixed concentration is often practiced in the pharmaceutical industry in order to evaluate the effect of the compound on secondary targets that could result in untoward toxicity in-vivo. These secondary screens are well known in the art and can be carried out by labs which specialize in these tests such as MDS-Panlabs and CEREP. A secondary toxicity screen is performed with Quercetin-3′-O-phosphate at a concentration of 10 μM against 122 targets in enzyme, radioligand binding, and cellular assays by MDS Pharma Services by methods well known in the art. Inhibition is found in only the following targets (percent inhibition at 10 μM in parentheses): ATPase, Na+/K+, Heart, Pig (65%), Nitric Oxide Synthase, Endothelial (eNOS) (72%), Protein Tyrosine Kinase, FGFR2 (94%), Protein Tyrosine Kinase, FGFR1(96%), Protein Tyrosine Kinase, Insulin Receptor (91%), Protein Tyrosine Kinase, (82%), Protein Tyrosine Kinase, ZA70 (ZAP-70) (74%), UDP Glucuronosyltransferase, UGT1A1 (52%), Adenosine A1 (50%), Adrenergic α2A (57%), Dopamine D47 (51%), Peripheral Benzodiazepine Receptor (PBR) (53%), Transporter, Monoamine rabbit (68%), Serotonin (5-Hydroxytryptamine) 5-HT1A (62%)."}, "[4]": {"tested_on": "Dopamine D47", "test": "Secondary toxicity screen (MDS Pharma Services), radioligand binding", "conditions": "10 μM", "protocol": "as §1"}, "[5]": {"tested_on": "Peripheral Benzodiazepine Receptor (PBR)", "test": "Secondary toxicity screen (MDS Pharma Services), radioligand binding", "conditions": "10 μM", "protocol": "as §1"}, "[6]": {"tested_on": "Transporter, Monoamine rabbit", "test": "Secondary toxicity screen (MDS Pharma Services), radioligand binding", "conditions": "10 μM", "protocol": "as §1"}, "[7]": {"molecular_target": "T1, AdenosineA1 (Homo sapiens, UniProt P30542)", "T1 sequence (P30542 1-326)": "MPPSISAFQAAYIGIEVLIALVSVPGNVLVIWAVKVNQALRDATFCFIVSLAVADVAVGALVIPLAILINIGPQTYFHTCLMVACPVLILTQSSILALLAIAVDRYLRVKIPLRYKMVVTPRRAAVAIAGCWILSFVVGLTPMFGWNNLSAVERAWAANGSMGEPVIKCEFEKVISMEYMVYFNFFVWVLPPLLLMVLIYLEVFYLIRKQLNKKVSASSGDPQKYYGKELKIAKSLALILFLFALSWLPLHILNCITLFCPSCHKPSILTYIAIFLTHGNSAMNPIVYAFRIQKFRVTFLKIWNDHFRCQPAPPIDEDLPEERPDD", "test": "GTPγS functional assay", "format": "biochemical", "conditions": "10 μM", "protocol": "(§2) The compound is additionally tested in AdenosineA1, AdrenergicA2A, DopamineD25, Histamine H1-, and μ-Opiate GTPγS functional assays using a concentration of 10 μM."}, "[8]": {"molecular_target": "T2, AdrenergicA2A (Homo sapiens, UniProt P08913)", "T2 sequence (P08913 1-465)": "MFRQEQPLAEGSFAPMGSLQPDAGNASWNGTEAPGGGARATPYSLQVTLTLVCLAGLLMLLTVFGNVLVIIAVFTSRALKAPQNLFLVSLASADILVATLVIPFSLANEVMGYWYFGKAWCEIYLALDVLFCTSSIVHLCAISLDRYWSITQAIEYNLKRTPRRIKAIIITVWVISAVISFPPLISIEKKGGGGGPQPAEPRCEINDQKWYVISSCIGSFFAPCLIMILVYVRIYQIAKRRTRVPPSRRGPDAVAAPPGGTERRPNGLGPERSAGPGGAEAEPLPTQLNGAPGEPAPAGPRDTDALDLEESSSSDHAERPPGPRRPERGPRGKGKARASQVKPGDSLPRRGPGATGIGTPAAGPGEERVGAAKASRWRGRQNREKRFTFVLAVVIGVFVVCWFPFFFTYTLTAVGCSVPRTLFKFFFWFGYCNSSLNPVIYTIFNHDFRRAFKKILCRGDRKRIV", "test": "GTPγS functional assay", "format": "biochemical", "conditions": "10 μM; potentially inverse agonist", "protocol": "as §2"}, "[9]": {"test": "Secondary toxicity screen, overall finding", "conditions": "10 μM against 122 targets", "protocol": "as §1"}}, "data": [{"smiles": "O=c1c(O)c(-c2ccc(O)c(OP(=O)(O)O)c2)oc2cc(O)cc(O)c12", "note": "[Quercetin-3′-O-phosphate]", "values": [{"measurement": "solubility", "setting": "[1]", "result": "≥ 80", "unit": "mg/mL"}, {"measurement": "protective effect with respect to the kidneys", "setting": "[2]; co-administered with tacrolimus", "result": "significant protective effect"}, {"measurement": "vacuolation of kidney tissue", "setting": "[2]; tacrolimus 0.5 mg/kg and Q-Phosphate at 11, 28 and 114 mg/kg, 25 days", "result": "no vacuoles"}, {"measurement": "percent inhibition", "setting": "[3]", "result": 65, "unit": "%"}, {"measurement": "percent inhibition", "setting": "[4]", "result": 51, "unit": "%"}, {"measurement": "percent inhibition", "setting": "[5]", "result": 53, "unit": "%"}, {"measurement": "percent inhibition", "setting": "[6]", "result": 68, "unit": "%"}, {"measurement": "antagonist activity", "setting": "[7]", "result": 48, "unit": "%"}, {"measurement": "inhibition in GTPγS functional assay", "setting": "[8]", "result": "marked negative inhibition"}, {"measurement": "toxicity properties (findings of the toxicology screen)", "setting": "[9]", "result": "low toxicity properties"}]}]}
